Source: patent US6610677B2, “Pyrazole compounds useful as protein kinase inhibitors” (Vertex Pharmaceuticals Incorporated, priority 2000, dated 2003)
pKi: −log10 of the molar value.

Tests used:
[1] = biological target: T1, Aurora-2 (Homo sapiens, UniProt O14965); assay: Ki determination for the inhibition of Aurora-2 (coupled enzyme assay); format: biochemical; conditions: 70 nM Aurora-2, peptide LRRASLG, 30° C
T1 sequence (O14965 1-403): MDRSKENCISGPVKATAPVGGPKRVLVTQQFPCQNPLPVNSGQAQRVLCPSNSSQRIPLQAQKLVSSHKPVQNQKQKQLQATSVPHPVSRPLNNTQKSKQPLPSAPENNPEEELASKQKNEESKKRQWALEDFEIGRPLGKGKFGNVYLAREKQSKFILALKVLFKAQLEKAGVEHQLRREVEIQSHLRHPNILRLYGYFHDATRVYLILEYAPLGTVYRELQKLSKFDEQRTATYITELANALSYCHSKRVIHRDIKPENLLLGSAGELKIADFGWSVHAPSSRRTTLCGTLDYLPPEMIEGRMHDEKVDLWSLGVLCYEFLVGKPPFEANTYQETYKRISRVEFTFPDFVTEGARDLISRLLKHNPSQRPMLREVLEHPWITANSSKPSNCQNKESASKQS
Method: Compounds were screened in the following manner for their ability to inhibit Aurora-2 using a standard coupled enzyme assay (Fox et al (1998) Protein Sci 7, 2249).
To an assay stock buffer solution containing 0.1M HEPES 7.5, 10 mM MgCl2, 1 mM DTT, 25 mM NaCl, 2.5 mM phosphoenolpyruvate, […], 30 mg/ml pyruvate kinase, 10 mg/ml lactate dehydrogenase, […], and 800 μM peptide (LRRASLG, American Peptide, Sunnyvale, Calif.) was added a DMSO solution of a compound of the present invention to a final concentration of 30 μM. The resulting mixture was incubated at 30° C. for 10 min. The reaction was initiated by the addition of 10 μL of Aurora-2 stock solution to give a final concentration of 70 nM in the assay. The rates of reaction were obtained by monitoring absorbance at 340 nm over a 5 minute read time at 30° C. using a BioRad Ultramark plate reader (Hercules, Calif.). The Ki values were determined from the rate data as a function of inhibitor concentration.

[2] = biological target: T2, GSK-3β (AA 1-420) (Homo sapiens, UniProt P49841); assay: Ki determination for the inhibition of GSK-3 (coupled enzyme system); format: biochemical; conditions: 20 μM ATP, 300 μM peptide, 20 nM GSK-3β, 30° C
T2 construct: GSK-3β (AA 1-420)
How it was run: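 Ki values come from reaction rates over 10 min at 30 °C as a function of inhibitor concentration (12-point titration, 0.002–30 μM, 10 min preincubation). GSK-3β (AA 1-420, 20 nM) phosphorylated 300 μM primed peptide with 20 μM ATP; ADP formation followed by coupled NADH oxidation, pH 7.5.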

T2 sequence (P49841 whole entry, the tested form may be a part): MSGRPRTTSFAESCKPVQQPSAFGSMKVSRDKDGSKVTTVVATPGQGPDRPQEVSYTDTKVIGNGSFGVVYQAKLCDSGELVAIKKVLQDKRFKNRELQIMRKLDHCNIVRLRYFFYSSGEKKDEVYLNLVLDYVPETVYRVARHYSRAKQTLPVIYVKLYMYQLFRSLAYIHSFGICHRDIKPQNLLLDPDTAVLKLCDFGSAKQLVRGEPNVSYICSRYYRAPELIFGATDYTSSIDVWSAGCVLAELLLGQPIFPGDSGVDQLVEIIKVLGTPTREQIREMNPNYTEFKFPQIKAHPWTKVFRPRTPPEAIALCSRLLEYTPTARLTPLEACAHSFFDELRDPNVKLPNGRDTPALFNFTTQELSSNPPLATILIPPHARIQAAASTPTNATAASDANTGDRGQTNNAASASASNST

| Compound | melting point | pKi [1] | pKi [2] |
| --- | --- | --- | --- |
| OCc1cc(Nc2nc(-c3ccccc3)nc3ccccc23)[nH]n1 [III-74, (5-Hydroxymethyl-2H-pyrazol-3-yl)-(2-phenyl-quinazolin-4-yl)-amine] | 238 to 239 °C | 6.00 to 7.00 | 6.00 to 7.00 |
| Cc1cc(Nc2nc(N3CCC(CCO)CC3)nc3ccccc23)[nH]n1 [III-110] | 175 °C | > 7.00 | 6.00 to 7.00 |
| c1ccc(Oc2cccc(-c3nc(Nc4cc(C5CC5)n[nH]4)c4ccccc4n3)c2)cc1 [III-61, (5-Cyclopropyl-2H-pyrazol-3-yl)-[2-(3-phenoxyphenyl)-quinazolin-4-yl]-amine] | 193 to 195 °C | > 7.00 | > 7.00 |
| COCCCc1cc(Nc2nc(-c3ccccc3)nc3ccccc23)[nH]n1 [III-77, [-(3-Methoxyprop-1-yl)-2H-pyrazol-3-yl]-(2-phenyl-quinazolin-4-yl)-amine] | 169 to 170 °C | > 7.00 | > 7.00 |
| Cc1n[nH]c(Nc2nc(-c3ccccc3)nc3ccccc23)c1Br [III-102, (4-Bromo-5-methyl-2H-pyrazol-3-yl)-(2-phenyl-quinazolin-4-yl)-amine] | 183 to 185 °C | 6.00 to 7.00 | 6.00 to 7.00 |
| Cc1cc(Nc2nc(-c3cccc(Oc4ccccc4)c3)nc3ccccc23)[nH]n1 [III-60, (5-Methyl-2H-pyrazol-3-yl)-[2-(3-phenoxyphenyl)-quinazolin-4-yl]-amine] | 231 to 232 °C | > 7.00 | > 7.00 |
| c1ccc(-c2cc(Nc3nc(-c4ccccc4)nc4ccccc34)[nH]n2)cc1 [III-71, (5-Phenyl-2H-pyrazol-3-yl)-(2-phenyl-quinazolin-4-yl)-amine] | 207 to 209 °C | 6.00 to 7.00 | 6.00 to 7.00 |
| Nc1ccc2[nH]nc(Nc3nc(-c4ccccc4C(F)(F)F)nc4ccccc34)c2c1 [II-73, (5-Amino-1H-indazol-3-yl)-[2-(2-trifluoromethyl-phenyl)-quinazolin-4-yl]-amine] | 221 to 223 °C | – | > 7.00 |
| Cc1cc(Nc2nc(-c3cc(Cl)cc(Cl)c3)nc3ccccc23)[nH]n1 [III-36, [2-(3,5-Dichlorophenyl)-quinazolin-4-yl]-(5-methyl-2H-pyrazol-3-yl)-amine] | 228 °C | – | – |
| O=C(O)c1cc(Nc2nc(-c3ccccc3)nc3ccccc23)[nH]n1 [III-72, (5-Carboxy-2H-pyrazol-3-yl)-(2-phenyl-quinazolin-4-yl)-amine] | 289 to 291 °C (dec.) | – | – |
| CC(C)(C)c1cc(Nc2nc(-c3ccncc3)nc3ccccc23)[nH]n1 [III-69, (5-tert-Butyl-2H-pyrazol-3-yl)-(2-pyridin-4-yl-quinazolin-4-yl)-amine] | > 300 °C | – | – |
| Cc1nc(-c2ccccc2C(F)(F)F)nc(Nc2n[nH]c3ccccc23)c1C [II-24, [5,6-Dimethyl-2-(2-trifluoromethyl-phenyl)-pyrimidin-4-yl]-(1H-indazol-3-yl)-amine] | 183 to 186 °C | – | > 7.00 |
| Cc1nc(-c2ccccc2C(F)(F)F)nc(Nc2n[nH]c3ccc(F)cc23)c1C [II-25, [5,6-Dimethyl-2-(2-trifluoromethyl-phenyl)-pyrimidin-4-yl]-(5-fluoro-1H-indazol-3-yl)-amine] | 160 to 163 °C | – | > 7.00 |
| Cc1cc(Nc2nc(N3CCC(N4CCCC4)CC3)nc3ccccc23)[nH]n1 [III-113] | 191 °C | 6.00 to 7.00 | – |
| Cc1cc(Nc2nc(N3CCOCC3)nc3ccccc23)[nH]n1 [III-104, (5-Methyl-2H-pyrazol-3-yl)-(2-morpholin-4-yl-quinazolin-4-yl)-amine] | 223 to 224 °C | – | – |
| CC(C)(C)OC(=O)NCCCc1cc(Nc2nc(-c3ccccc3)nc3ccccc23)[nH]n1 [III-80, [5-(3-tert-Butoxycarbonylaminoprop-1-yl)-2H-pyrazol-3-yl]-(2-phenyl-quinazolin-4-yl)-amine] | 199 to 200 °C | > 7.00 | – |
| Cc1cc(Nc2nc(-c3cc(F)cc(F)c3)nc3ccccc23)[nH]n1 [III-51, [2-(3,5-Difluorophenyl)-quinazolin-4-yl]-(5-methyl-2H-pyrazol-3-yl)-amine] | – | > 7.00 | > 7.00 |
| Fc1ccc2[nH]nc(Nc3nc(-c4ccccc4C(F)(F)F)nc4c3CCC4)c2c1 [II-107, (5-Fluoro-1H-indazol-3-yl)-[2-(2-trifluoromethyl-phenyl)-6,7-dihydro-5H-cyclopentapyrimidin-4-yl]-amine] | – | 4.70 to 6.00 | > 7.00 |
| Cc1cc(Nc2nc(-c3ccccc3)nc3c2CCCC3)n[nH]1 [III-7, (5-Methyl-2H-pyrazol-3-yl)-(2-phenyl-5,6,7,8-tetrahydroquinazolin-4-yl)-amine] | – | > 7.00 | > 7.00 |
| Cc1cc(Nc2nc(-c3cc(C(F)(F)F)cc(C(F)(F)F)c3)nc3ccccc23)[nH]n1 [III-58, [2-(3,5-Ditrifluoromethylphenyl)-quinazolin-4-yl]-(5-methyl-2H-pyrazol-3-yl)-amine] | – | 6.00 to 7.00 | > 7.00 |
| Oc1cc(Nc2nc(-c3ccccc3C(F)(F)F)nc3ccccc23)n[nH]1 [II-54, (5-Hydroxy-2H-pyrazol-3-yl)-[2-(2-trifluoromethylphenyl)-quinazolin-4-yl]-amine] | – | 4.70 to 6.00 | > 7.00 |
| FC(F)(F)c1ccccc1-c1nc(Nc2n[nH]c3cc(Cl)ccc23)c2ccccc2n1 [II-80, (6-Chloro-1H-indazol-3-yl)-[2-(2-trifluoromethyl-phenyl)-quinazolin-4-yl]-amine] | – | 4.70 to 6.00 | > 7.00 |

Results, then the molecule that gave them:

| melting point | pKi [1] | pKi [2] | Compound |
| --- | --- | --- | --- |
| 137 to 145 °C | > 7.00 | > 7.00 | c1ccc2c(c1)CCCN2c1nc(Nc2cc(C3CC3)n[nH]2)c2ccccc2n1 [III-121, (5-Cyclopropyl-2H-pyrazol-3-yl)-[2-(3,4-dihydro-2H-quinolin-1-yl)-quinazolin-4-yl]-amine] |
| 150 to 153 °C | > 7.00 | > 7.00 | c1ccc2c(c1)CCN2c1nc(Nc2cc(C3CC3)n[nH]2)c2ccccc2n1 [III-119, (5-Cyclopropyl-2H-pyrazol-3-yl)-[2-(2,3-dihydro-indol-1-yl)-quinazolin-4-yl]-amine] |
| 225 °C | – | – | Cc1cc(Nc2nc(-c3ccccc3)nc3cnccc23)n[nH]1 [IV-30, (5-Methyl-2H-pyrazol-3-yl)-(2-phenyl-pyrido[3,4-d]pyrimidin-4-yl)-amine] |
| 234 °C | – | – | Cc1cc(Nc2nc(-c3ccccc3)nc3ncccc23)n[nH]1 [IV-31, (5-Methyl-2H-pyrazol-3-yl)-(2-phenyl-pyrido[2,3-d]pyrimidin-4-yl)-amine] |
| 215 to 216 °C | – | – | Cc1cc(Nc2ccnc(N3CCC(C)CC3)n2)n[nH]1 [IV-4, [2-(4-Methylpiperidin-1-yl)-pyrimidin-4-yl]-(5-methyl-2H-pyrazol-3-yl)-amine] |
| 235 to 236 °C | – | – | CC(=O)Nc1ccc(Sc2cc(Nc3cc(C)[nH]n3)nc(-c3ccccc3)n2)cc1 [IV-3, [6-(4-Acetamidophenylsulfanyl)-2-phenyl-pyrimidin-4-yl]-(5-methyl-2H-pyrazol-3-yl)-amine] |
| 245 to 246 °C | – | – | Cc1cc(Nc2ccnc(-c3ccccc3)n2)n[nH]1 [IV-1, (5-Methyl-2H-pyrazol-3-yl)-(2-phenyl-pyrimidin-4-yl)-amine] |
| 172 to 175 °C | – | – | Cc1cc(Nc2nc(N3CCC(C)CC3)nc(C)c2N)n[nH]1 [IV-7, [5-Amino-6-methyl-2-(4-methylpiperidin-1-yl)-pyrimidin-4-yl]-(5-methyl-2H-pyrazol-3-yl)-amine] |
| 185 to 187 °C | – | – | Cc1cc(Nc2nc(N3CCC(C)CC3)ncc2[N+](=O)[O-])[nH]n1 [IV-5, [2-(4-Methylpiperidin-1-yl)-5-nitropyrimidin-4-yl]-(5-methyl-2H-pyrazol-3-yl)-amine] |
| – | 4.70 to 6.00 | > 7.00 | Fc1cc(F)c2n[nH]c(Nc3nc(-c4ccccc4)nc4c3CCCC4)c2c1 [III-127, (5,7-Difluoro-1H-indazol-3-yl)-(2-phenyl-5,6,7,8-tetrahydroquinazolin-4-yl)-amine] |
| 232 to 233 °C | – | – | c1ccc(-c2nc(Nc3cc(C4CC4)[nH]n3)c3ccncc3n2)cc1 [IV-32, (5-Cyclopropyl-2H-pyrazol-3-yl)-(2-phenyl-pyrido[3,4-d]pyrimidin-4-yl)-amine] |
